Patent US4835180A, “N-(ω-cyanoalkyl)aminophenols and use as inhibitors of lipoxygenase activity” (Sterling Drug Inc., priority 1986, dated 1989)
Counter-ions that a name gives are not always drawn. Like-named read-outs stand apart in the source and are kept apart here.

How the values were obtained:
[1] = target: T1, cyclooxygenase derived from rat basophilic leukemia (RBL-1) cells (Rattus norvegicus, UniProt Q63921); experiment: % inhibition of formation of cyclooxygenase product prostaglandin D2 (C1) in RBL-1 microsomal homogenate; assay type: biochemical; design: inhibition: dose or concentration left out as unconfirmed; conditions: read-out: % Inhibition in vitro, C1 (prostaglandin D2)
T1 construct: Single cell suspensions of RBL-1 cells are homogenized to obtain the microsomal fraction containing lipoxygenase and cyclooxygenase; endogenous in cells; host or cells: RBL-1 (rat basophilic leukemia) cells, homogenate/microsomal fraction
T1 sequence (Q63921 27-602): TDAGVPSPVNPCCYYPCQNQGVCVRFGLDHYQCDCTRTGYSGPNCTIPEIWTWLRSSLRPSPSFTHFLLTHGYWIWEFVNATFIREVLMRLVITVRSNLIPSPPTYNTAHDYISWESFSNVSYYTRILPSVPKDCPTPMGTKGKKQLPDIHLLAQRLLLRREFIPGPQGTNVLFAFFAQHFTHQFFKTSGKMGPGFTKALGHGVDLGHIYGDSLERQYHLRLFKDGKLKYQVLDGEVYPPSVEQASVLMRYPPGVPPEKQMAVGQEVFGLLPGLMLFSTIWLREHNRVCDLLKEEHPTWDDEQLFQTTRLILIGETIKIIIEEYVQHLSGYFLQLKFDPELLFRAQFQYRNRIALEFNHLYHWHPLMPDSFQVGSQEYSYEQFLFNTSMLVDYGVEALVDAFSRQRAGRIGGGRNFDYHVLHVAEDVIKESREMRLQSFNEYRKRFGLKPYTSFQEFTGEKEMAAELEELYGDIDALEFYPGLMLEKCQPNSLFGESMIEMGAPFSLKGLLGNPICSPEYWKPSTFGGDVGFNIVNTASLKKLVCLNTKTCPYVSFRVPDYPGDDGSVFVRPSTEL
Description: (§1) The primary screening test used is a determination of the inhibition of lipoxygenase and cyclooxygenase derived from rat basophilic leukemia (RBL-1) cells. The test was carried out according to the following procedure:
(§2) Single cell suspensions of RBL-1 cells are homogenized to obtain the microsomal fraction containing lipoxygenase and cyclooxygenase. Test compounds are added to the enzyme-containing homogenate for a 5 min. preincubation period at 37° C. prior to the addition of ^14 C-arachidonic acid substrate. Following incubation at 37° C. for 15 min., the reaction is stopped by the addition of 2M formic acid and the enzyme-substrate products are extracted into chloroform. An aliquot of the extract is evaporated to dryness, reconstituted in ether to 1/10 original volume, spotted on thin layer chromatography plates and chromatographed. The peak areas of radioactivity representing the products are located by scanning the plates. The quantity of products formed is estimated by measuring the height of the radioactivity peaks observed on the chromatographic scans. Alternatively, the areas of radioactivity are scraped from the plate and the ^14 C quantitated by scintillation counting. The percent inhibition in the formation of the cyclooxygenase product prostaglandin D2, designated as C1, and lipoxygenase products 5,12-di-HETE and 5-HETE, designated L1 and L2 respectively, are shown. Compounds with >50% inhibition of L1 and L2 at a screening concentration of 1 μM are considered active.

[2] = target: T2, lipoxygenase derived from rat basophilic leukemia (RBL-1) cells (Rattus norvegicus, UniProt P12527); experiment: % inhibition of formation of lipoxygenase products 5,12-di-HETE (L1) and 5-HETE (L2) in RBL-1 microsomal homogenate; assay type: biochemical; design: inhibition: dose or concentration left out as unconfirmed
T2 construct: Single cell suspensions of RBL-1 cells are homogenized to obtain the microsomal fraction containing lipoxygenase and cyclooxygenase; endogenous in cells; host or cells: RBL-1 (rat basophilic leukemia) cells, homogenate/microsomal fraction
T2 sequence (P12527 1-673): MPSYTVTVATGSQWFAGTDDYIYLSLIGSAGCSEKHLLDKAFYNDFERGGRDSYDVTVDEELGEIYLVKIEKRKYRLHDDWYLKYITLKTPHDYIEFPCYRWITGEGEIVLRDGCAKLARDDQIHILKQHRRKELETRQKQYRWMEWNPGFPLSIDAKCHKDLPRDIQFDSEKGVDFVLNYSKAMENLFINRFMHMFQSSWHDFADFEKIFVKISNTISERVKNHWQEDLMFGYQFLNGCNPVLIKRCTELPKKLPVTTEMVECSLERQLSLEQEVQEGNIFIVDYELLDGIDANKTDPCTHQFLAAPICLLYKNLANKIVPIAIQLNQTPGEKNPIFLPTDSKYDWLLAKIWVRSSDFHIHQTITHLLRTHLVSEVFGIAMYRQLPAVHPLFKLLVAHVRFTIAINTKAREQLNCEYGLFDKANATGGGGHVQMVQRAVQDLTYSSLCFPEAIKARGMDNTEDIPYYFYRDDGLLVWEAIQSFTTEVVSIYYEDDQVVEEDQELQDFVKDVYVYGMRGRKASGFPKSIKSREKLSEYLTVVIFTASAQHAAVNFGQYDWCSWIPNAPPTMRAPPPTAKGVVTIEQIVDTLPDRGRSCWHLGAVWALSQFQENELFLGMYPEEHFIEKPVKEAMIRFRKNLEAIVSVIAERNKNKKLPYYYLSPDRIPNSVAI
Description: as §1, §2

[3] = system: SRS-A component of immunologically induced bronchoconstriction; experiment: effect on the SRS-A component of immunologically induced bronchoconstriction in guinea pigs; assay type: in vivo; conditions: guinea pig
Description: The test was carried out according to the following procedure: Outbred female guinea pigs were sensitized to egg albumin by a 1 mL ip injection of a 1 mg/mL egg albumin alum suspension. Twelve to sixteen days after immunization, the animals were used for the test. They were anesthetized with urethane (1.5 gm/kg ip) and surgically prepared with a jugular vein canula connected to a three-way stopcock for administration of drugs and antigen challenge. The trachea was cannulated and the animal artifically respired. The intratracheal pressure was continuously recorded and expressed in mm Hg. Naproxen sodium (10 mg/kg) and pyrilamine maleate (0.3 mg/kg) in phosphate buffered saline, pH 7.2, were administered intravenously in a single solution seven minutes prior to antigen challenge. Propranolol (0.1 mg/kg) was also given iv three minutes prior to challenge with egg albumin (300 μg/kg iv). The animals were dosed orally with compounds in water or in a vehicle of 3% corn starch, 5% polyethylene glycol 400, and 0.34% Tween 8™ in water at one or four hours before challenge. Results were recorded as the maximum increase in intratracheal pressure following antigen challenge. Activity of the compounds was measured as percent inhibition of the mean peak intratracheal pressure in the group of dosed animals in comparison to the mean peak intratracheal pressure in the group of vehicle treated animals. The results are expressed in terms of % inhibition.

[4] = 0.25 h, line carries a superscript without letter (probably footnote a, 0.1 μM)
[5] = 0.25 h, line carries a superscript without letter (probably footnote a, 0.1 μM), read-out: % Inhibition in vitro, L1 (5,12-di-HETE)
[6] = 0.25 h, line carries a superscript without letter (probably footnote a, 0.1 μM), read-out: % Inhibition in vitro, L2 (5-HETE)
[7] = read-out: % Inhibition in vitro, L1 (5,12-di-HETE)
[8] = read-out: % Inhibition in vitro, L2 (5-HETE)
[9] = 100 mg/kg p.o., at 1 hour before challenge
[10] = 100 mg/kg p.o., at 4 hours before challenge

Row | SMILES | inhibition at 1 µM [1, 4] | inhibition at 1 µM [2, 5] | inhibition at 1 µM [2, 6] | inhibition [1] | inhibition [2, 8] | % Inhibition in vivo (mean peak intratracheal pressure) [3, 9] | % Inhibition in vivo (mean peak intratracheal pressure) [3, 10] | further results
1 | N#CCCCCNc1ccc(O)cc1 [Example 1c, 5-[(4-Hydroxyphenyl)amino]pentanenitrile] | 0% | 100% | 100% | – | – | – | – | –
2 | N#CCCCCCCNc1ccc(O)cc1 [Example 2d, 7-[(4-Hydroxyphenyl)amino]heptanenitrile] | – | – | – | – | – | 66% | 61% | inhibition at 1 µM [1]: 42%; inhibition at 1 µM [2, 7]: 92%; inhibition at 1 µM [2, 8]: 98%
3 | Cl.N#CCCCCCCNc1ccccc1O [Example 3c, 7-[(2-Hydroxyphenyl)amino]heptanenitrile monohydrochloride] | – | – | – | 0% | 100% | 4% | 11% | –
4 | N#CCCCCCCCNc1ccc(O)cc1.O=C(O)/C=C\C(=O)O [Example 4c, 8-[(4-Hydroxyphenyl)amino]octanenitrile (Z)-2-butenedioate] | 0% | 100% | 100% | – | – | 17% | 76% | –
5 | N#CCCCCCCCCNc1ccc(O)cc1.O=C(O)/C=C\C(=O)O [Example 5c, 9-[(4-Hydroxyphenyl)amino]nonanenitrile (Z)-2-butenedioate] | – | – | – | 0% | 95% | 0% | 25% | inhibition [2, 7]: 82%
6 | CC(=O)Oc1ccc(N(C)CCCCCCC#N)cc1 [Example 6d, 7-[[4-(Acetyloxy)phenyl]methylamino]heptanenitrile] | – | – | – | 14% | 85% | – | – | inhibition [2, 7]: 91%
7 | N#CCCCCCCNc1cc(Cl)c(O)c(Cl)c1 [Example 9c, 7-[(3,5-Dichloro-4-hydroxyphenyl)amino]heptanenitrile monohydrochloride] | – | – | – | 9% | 95% | – | – | –
8 | N#CCCCCCCNc1ccc(O)c(CO)c1 [Example 10c, 7-[[4-Hydroxy-3-(hydroxymethyl)phenyl]amino]heptanenitrile monohydrochloride] | 10% | 100% | 100% | – | – | – | – | –
9 | Cl.N#CCCCCCCNc1ccc(O)cc1F [Example 11c, 7-[(2-Fluoro-4-hydroxyphenyl)amino]heptanenitrile monohydrochloride] | – | – | – | 22% | 93% | 7% | 30% | inhibition [2, 7]: 86%

Continued, in another order:

Row | inhibition at 1 µM [1, 4] | inhibition at 1 µM [2, 5] | inhibition at 1 µM [2, 6] | inhibition [1] | inhibition [2, 8] | SMILES | % Inhibition in vivo (mean peak intratracheal pressure) [3, 9] | % Inhibition in vivo (mean peak intratracheal pressure) [3, 10] | further results
10 | 28% | 100% | 100% | – | – | CN(CCCCCCC#N)c1ccc(O)cc1 [Example 6c] | 6% | – | –
11 | – | – | – | 0% | 65% | Cc1cc(O)ccc1NCCCCCCC#N.Cl [Example 7c, 7-[(4-Hydroxy-2-methylphenyl)amino]heptanenitrile monohydrochloride] | – | – | % Inhibition in vivo (mean peak intratracheal pressure) ([3]; 300 mg/kg p.o. (footnote b), at 1 hour before challenge): 66%; % Inhibition in vivo (mean peak intratracheal pressure) ([3]; 300 mg/kg p.o. (footnote b), at 4 hours before challenge): 86%
12 | 13% | 100% | 100% | – | – | Cc1cc(NCCCCCCC#N)ccc1O [Example 8c, 7-[(4-Hydroxy-3-methylphenyl)amino]heptanenitrile monohydrochloride] | – | – | –
